Laboratory results reported in ChEMBL document CHEMBL3885861, “Open TG-GATES”.

Species: Rattus norvegicus
Assay: Open TG-GATES - Regimen: Daily Repeat
Assay type: toxicity, organism-based, Sprague-Dawley
Design: regimen Daily Repeat, gender Male, age 6 weeks
Settings: in vivo, po, route gavage; for APTT / Bas / Eos / Fbg / Hb / Ht / Lym / MCH / MCV / Mono / Neu / PT / Plat / RBC / Ret / WBC: tissue Blood; for KIDNEY_L / KIDNEY_R / KIDNEY_TOTAL: tissue Kidney; for LIVER: tissue Liver; for ALP / ALT / AST / BUN / CRE / Ca / Cl / DBIL / GLC / IP / K / LDH / Na / PL / RALB / TBIL / TP / gamma-GTP: tissue Plasma
[1] = 0 mg/kg, 72 h, dose level Control, time 3 day
[2] = 0 mg/kg, […], dose level Control, time 7 day
[3] = 0 mg/kg, […], dose level Control, time 14 day
[4] = 0 mg/kg, […], dose level Control, time 28 day

NC(=O)N1c2ccccc2C=Cc2ccccc21 [CARBAMAZEPINE]
TERMINAL_BW [1]: 235.3 g | APTT [1]: 19.1 s | Bas [1]: 0% | Eos [1]: 1% | Fbg [1]: 213.8 mg/dL | Hb [1]: 13.6 g/dL | Ht [1]: 40.2% | Lym [1]: 79% | MCH [1]: 21 pg | MCV [1]: 61.9 fL | Mono [1]: 3.6% | Neu [1]: 15.6% | PT [1]: 12.3 s | Plat [1]: 123.2 x10_4/uL | RBC [1]: 648.8 x10_4/ul | Ret [1]: 4.9% | WBC [1]: 95.6 x10_2/uL | KIDNEY_L [1]: 1.1 g | KIDNEY_R [1]: 1.1 g | KIDNEY_TOTAL [1]: 2.2 g | LIVER [1]: 11.5 g | ALP [1]: 1022.4 IU/L | ALT [1]: 41.4 IU/L | AST [1]: 77 IU/L | BUN [1]: 15.6 mg/dL | CRE [1]: 0.4 mg/dL | Ca [1]: 10.7 mg/dL | Cl [1]: 102.4 meq/L | DBIL [1]: 0.08 mg/dL | GLC [1]: 213.8 mg/dL | IP [1]: 7.8 mg/dL | K [1]: 3.8 meq/L | LDH [1]: 178.8 IU/L | Na [1]: 140.4 meq/L | PL [1]: 144 mg/dL | RALB [1]: 3.3 g/dL | TBIL [1]: 0.1 mg/dL | TP [1]: 5.6 g/dL | gamma-GTP [1]: 0.8 IU/L | TERMINAL_BW [2]: 265.1 g | TERMINAL_BW [3]: 321.1 g | TERMINAL_BW [4]: 388.8 g | APTT [2]: 21.2 s | Bas [2]: 0% | Eos [2]: 1% | Fbg [2]: 223 mg/dL | Hb [2]: 14 g/dL | Ht [2]: 40.8% | Lym [2]: 81% | MCH [2]: 20.8 pg | MCV [2]: 60.5 fL | Mono [2]: 2.4% | Neu [2]: 14.4% | PT [2]: 11.9 s | Plat [2]: 122.6 x10_4/uL | RBC [2]: 674.4 x10_4/ul | Ret [2]: 3.8% | WBC [2]: 90.9 x10_2/uL | APTT [3]: 22 s | Bas [3]: 0% | Eos [3]: 1% | Fbg [3]: 219 mg/dL | Hb [3]: 14.5 g/dL | Ht [3]: 41.7% | Lym [3]: 82.2% | MCH [3]: 20.7 pg | MCV [3]: 59.6 fL | Mono [3]: 2.6% | Neu [3]: 13.2% | PT [3]: 12.2 s | Plat [3]: 129 x10_4/uL | RBC [3]: 700.4 x10_4/ul | Ret [3]: 4.2% | WBC [3]: 120.8 x10_2/uL | APTT [4]: 20.4 s | Bas [4]: 0% | Eos [4]: 1.2% | Fbg [4]: 212.8 mg/dL | Hb [4]: 15.3 g/dL | Ht [4]: 43.3% | Lym [4]: 81% | MCH [4]: 20.1 pg | MCV [4]: 56.8 fL | Mono [4]: 2.4% | Neu [4]: 14.6% | PT [4]: 12.2 s | Plat [4]: 111.8 x10_4/uL | RBC [4]: 762 x10_4/ul | Ret [4]: 2.4% | WBC [4]: 105.6 x10_2/uL | KIDNEY_L [2]: 1.1 g | KIDNEY_R [2]: 1.1 g | KIDNEY_TOTAL [2]: 2.3 g | KIDNEY_L [3]: 1.3 g | KIDNEY_R [3]: 1.2 g | KIDNEY_TOTAL [3]: 2.5 g | KIDNEY_L [4]: 1.4 g | KIDNEY_R [4]: 1.4 g | KIDNEY_TOTAL [4]: 2.8 g | LIVER [2]: 12.2 g | LIVER [3]: 13.6 g | LIVER [4]: 15.2 g | ALP [2]: 993 IU/L | ALT [2]: 37.6 IU/L | AST [2]: 74 IU/L | BUN [2]: 16.8 mg/dL | CRE [2]: 0.4 mg/dL | Ca [2]: 10.5 mg/dL | Cl [2]: 102.4 meq/L | DBIL [2]: 0.1 mg/dL | GLC [2]: 218.2 mg/dL | IP [2]: 7.5 mg/dL | K [2]: 3.8 meq/L | LDH [2]: 218.6 IU/L | Na [2]: 140.6 meq/L | PL [2]: 158.6 mg/dL | RALB [2]: 3.5 g/dL | TBIL [2]: 0.2 mg/dL | TP [2]: 5.8 g/dL | gamma-GTP [2]: 1 IU/L | ALP [3]: 817.2 IU/L | ALT [3]: 36 IU/L | AST [3]: 64 IU/L | BUN [3]: 16.7 mg/dL | CRE [3]: 0.5 mg/dL | Ca [3]: 10.7 mg/dL | Cl [3]: 102.4 meq/L | DBIL [3]: 0.1 mg/dL | GLC [3]: 207.4 mg/dL | IP [3]: 7 mg/dL | K [3]: 3.8 meq/L | LDH [3]: 204.6 IU/L | Na [3]: 141.6 meq/L | PL [3]: 151.4 mg/dL | RALB [3]: 3.5 g/dL | TBIL [3]: 0.2 mg/dL | TP [3]: 5.9 g/dL | gamma-GTP [3]: 1 IU/L | ALP [4]: 739.6 IU/L | ALT [4]: 35.4 IU/L | AST [4]: 68.2 IU/L | BUN [4]: 18 mg/dL | CRE [4]: 0.5 mg/dL | Ca [4]: 10.3 mg/dL | Cl [4]: 102 meq/L | DBIL [4]: 0.1 mg/dL | GLC [4]: 224.8 mg/dL | IP [4]: 6.7 mg/dL | K [4]: 3.4 meq/L | LDH [4]: 182.6 IU/L | Na [4]: 141 meq/L | PL [4]: 147.8 mg/dL | RALB [4]: 3.4 g/dL | TBIL [4]: 0.2 mg/dL | TP [4]: 6.2 g/dL | gamma-GTP [4]: 1.2 IU/L | TERMINAL_BW (30 mg/kg, 72 h, dose level Low, time 3 day): 237.7 g
